From patent publication US20150289795A1, “METHODS AND KITS FOR THE PROGNOSIS OF COLORECTAL CANCER” (INSTITUCIÓ CATALANA DE RECERCA I ESTUDIS AVANÇATS, priority 2012, published 2015)

Legend:
[1] = system: CoCSC-derived culture (TGFBR2-mutant tumour organoids of a Stage IV CRC patient); test: in vitro growth of CoCSC-derived tumour organoid culture; assay type: cell-based, human; conditions: both TGFBR2 alleles inactivated, data not shown
Text: The purification of Colon Cancer CoCSCs from CRC biopsies is described elsewhere (Merlos-Suarez et al., 2011, Cell Stem Cell 8, 511-524). We isolated CoCSCs from the primary tumour of a Stage IV CRC patient and cultured them as epithelial tumour organoids as described in (Jung et al., 2011; Nat Med 17, 1225-1227; Sato et al., 2011; Gastroenterology 141, 1762-1772). […] When injected in immunodeficient mice, they generated tumours with abundant p-SMAD2+ stromal cells, implying that this primary CoCSCs elicited a TGF-beta response in the tumour microenvironment (data not shown).

[2] = system: colon cancer stem cells derived from a stage IV patient; test: subcutaneous tumour formation by primary CoCSC-derived cells in mice; assay type: in vivo; conditions: 2 mg twice a day per os, from three days prior to inoculation until sacrifice; FIG. 12A
Text: (§1) A. Kaplan Meier curves show tumour free survival over time for mice injected subcutaneously with colon cancer stem cells derived from a stage IV patient, treated or not with a TGF beta inhibitor (LY2157299). Mice received LY2157299 or vehicle from three days prior to inoculation until sacrifice (n=12) B. Bioluminescence over time after intrasplenic inoculation of 5×10^5 colon cancer stem cells derived from a stage IV patient in NSG mice treated as in A. Intensities were normalized to day 0 and arbitrarily set to 100. Values are mean±SEM (*: p<0.05).
All experiments with mouse models were approved by the animal care and use committee of the Barcelona Science Park (CEEA-PCB) and the Catalan Government. Cells were injected subcutaneously in 5 to 6 weeks old Swiss nude or NSG mice, (Jackson Labs), which were followed for the periods described. Tumour appearance was assessed by palpation. Five to six weeks old Balb/c nude or NSG mice (Jackson Labs) were used to perform metastasis experiments by intra-splenic injection (Warren et al., 1995, J. Clin. Invest. 95, 1789-1797) […]

[3] = system: colon cancer stem cells derived from a stage IV patient; test: liver metastasis after intrasplenic inoculation of CoCSCs, bioluminescence; assay type: in vivo, NSG mice
Text: as §1
All experiments with mouse models were approved by the animal care and use committee of the Barcelona Science Park (CEEA-PCB) and the Catalan Government. Cells were injected subcutaneously in 5 to 6 weeks old Swiss nude or NSG mice, (Jackson Labs), which were followed for the periods described. Tumour appearance was assessed by palpation. […]
Mice were anaesthetized, injected retro-orbitally with D-luciferin (Promega) and imaged for luciferase activity as previously described (Minn et al., 2005; J Clin Invest 115, 44-55). Luciferase activity measured immediately after cell injection was used to exclude any mice that were not successfully xenografted and to normalize bioluminescence. […]

[4] = system: TGF-beta signalling (p-SMAD2); test: TGF-beta signalling and target gene mRNA in pre-established xenografts; assay type: in vivo, mice; conditions: tenfold higher dosed treatment for 3 days
Text: The TGF-beta receptor I kinase antagonist, LY2157299, developed by Eli Lilly (Beight, 2004, Eli Lilly and Co. PCT Int. Appl. In PCT Int. Appl. WO2004048382A1; Bueno et al., 2008; Eur J Cancer 44, 142-150) was synthesized following the procedure described (Mundla, 2007; Eli Lilly and Company. PCT Int. Appl. WO2007018818A1. In, (USA)). TGF-beta receptor type I inhibitor LY2157299 was suspended in a formulation (vehicle) composed of 1% sodium carboxy methylcellulose (NaCMC), 0.4% sodium lauryl sulfate (SLS), 0.05% anti-foam and 0.085% polyvinylpyrrolidone (PVP) in a concentration of 6.67 mg mL^−1. Mice were dosed twice a day with 2 mg in 300 μL (2 mg) per os. starting 3 days before CRC cell lines inoculation. A tenfold higher dosed treatment for 3 days was used to show TGF-beta signalling (p-SMAD2) and target gene mRNA downregulation in pre-established xenografts.

| Molecule | in vitro growth rates, morphology or organoid forming activity [1] | formation of subcutaneous tumours (tumour free survival) [2] | number of cells that engrafted the liver immediately after inoculation ([3]; kinetics of metastatic colonization, FIG. 12B inset) | formation of liver metastasis by CoCSCs inoculated via the spleen ([3]; same regime, 5×10^5 cells intrasplenic, NSG mice, FIG. 12B) | TGF-beta signalling (p-SMAD2) and target gene mRNA [4] |
| --- | --- | --- | --- | --- | --- |
| Cc1cccc(-c2nn3c(c2-c2ccnc4ccc(C(N)=O)cc24)CCC3)n1 [LY2157299, 2-(6-methyl-pyridin-2-yl)-3-[6-amido-quinolin-4-yl)-5,6-dihydro-4H-pyrrolo[1,2-b]pyrazole] | did not modify | conferred resistance to the formation of subcutaneous tumours | reduced the number of cells that engrafted the liver | reduced formation of liver metastasis | downregulation |
| active TGF-beta: active TGF-beta added to the CoCSC-derived culture | did not modify |  |  |  |  |
